According to patent publication US8952024B2, “Herbicidal pyrimidone derivatives” (E I du Pont de Nemours and Company, priority 2009, dated 2015):

Assays:
Assay in all cases: Test B pre-/postemergence plant response
Assay type in all cases: in vivo
[1] = test system: pigweed (Amaranthus retroflexus); conditions: Postemergence
Method in brief: (§1)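 Compound in solvent + surfactant applied pre-em (loam/sand) or post-em (plants 2–18 cm, peat medium); greenhouse hold 13–15 days; visual 0–100 control score.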

[2] = test system: yellow nutsedge (Cyperus esculentus); conditions: Postemergence
Method in brief: as §1

[3] = test system: ragweed (common ragweed, Ambrosia elatior); conditions: Postemergence
Method in brief: as §1

[4] = test system: velvetleaf (Abutilon theophrasti); conditions: Postemergence
Method in brief: as §1

[5] = test system: goosegrass (Eleusine indica); conditions: Postemergence
Method in brief: as §1

[6] = test system: Italian ryegrass (Lolium multiflorum); conditions: Postemergence
Method in brief: as §1

[7] = test system: Surinam grass (Brachiaria decumbens); conditions: Postemergence
Method in brief: as §1

[8] = test system: green foxtail (Setaria viridis); conditions: Postemergence
Method in brief: as §1

[9] = test system: woolly cupgrass (Eriochloa villosa); conditions: Postemergence
Method in brief: as §1

[10] = test system: large crabgrass (Digitaria sanguinalis); conditions: Postemergence
Method in brief: as §1

[11] = test system: wheat (Triticum aestivum); conditions: Postemergence
Method in brief: as §1

[12] = test system: lambsquarters (Chenopodium album); conditions: Postemergence
Method in brief: as §1

[13] = test system: downy bromegrass (Bromus tectorum); conditions: for Bromegrass, Downy plant response rating (0 to 100 scale): 62 g ai/ha, postemergence, 0 is no effect, 100 is complete control; for Plant response rating, Bromegrass, Downy: Postemergence
Method in brief: as §1

[14] = 31 g ai/ha, 0 to 100 scale (0 no effect, 100 complete control)
[15] = 125 g ai/ha, scale 0 to 100 (0 no effect, 100 complete control)
[16] = 250 g ai/ha, scale 0 to 100 (0 no effect, 100 complete control), 13 to 15 days

SMILES	Plant response rating, Pigweed [1, 14]	Plant response rating, Pigweed [1, 15]	Plant response rating, Pigweed [1, 16]	Plant response rating, Nutsedge, Yellow [2, 14]	Plant response rating, Nutsedge, Yellow [2, 15]	Plant response rating, Nutsedge, Yellow [2, 16]	Plant response rating, Ragweed [3, 14]	Plant response rating, Ragweed [3, 15]	Plant response rating, Ragweed [3, 16]	Plant response rating, Velvetleaf [4, 14]	Plant response rating, Velvetleaf [4, 15]	Plant response rating, Velvetleaf [4, 16]	Plant response rating, Goosegrass [5, 14]	Plant response rating, Goosegrass [5, 15]	Plant response rating, Goosegrass [5, 16]	Plant response rating, Ryegrass, Italian [6, 14]	Plant response rating, Ryegrass, Italian [6, 15]	Plant response rating, Ryegrass, Italian [6, 16]	Plant response rating, Surinam Grass [7, 14]	Plant response rating, Surinam Grass [7, 15]	also measured
O=C1CCCC(O)=C1C(=O)c1cnc(-c2ccccc2)n(C2CCSCC2)c1=O [Compound 164]	98	100	100	40	70	75	85	98	100	70	80	95	85	98	98	5	20	40	60	95	Plant response rating, Surinam Grass [7, 16]: 98; Plant response rating, Foxtail, Green [8, 14]: 70; Plant response rating, Foxtail, Green [8, 15]: 98; Plant response rating, Foxtail, Green [8, 16]: 100; Plant response rating, Cupgrass, Woolly [9, 14]: 75; Plant response rating, Cupgrass, Woolly [9, 15]: 98; Plant response rating, Cupgrass, Woolly [9, 16]: 100; Plant response rating, Crabgrass, Large [10, 14]: 95; Plant response rating, Crabgrass, Large [10, 15]: 98; Plant response rating, Crabgrass, Large [10, 16]: 100; Plant response rating, Wheat [11, 14]: 0; Plant response rating, Wheat [11, 15]: 35; Plant response rating, Wheat [11, 16]: 50; Plant response rating, Lambsquarters [12, 14]: 98; Plant response rating, Lambsquarters [12, 15]: 100; Plant response rating, Lambsquarters [12, 16]: 100; Bromegrass, Downy plant response rating (0 to 100 scale) ([13]; 13 to 15 days): 80; Plant response rating, Bromegrass, Downy [13, 14]: 40; Plant response rating, Bromegrass, Downy [13, 15]: 85; Plant response rating, Bromegrass, Downy [13, 16]: 95
O=C1CCCC(O)=C1C(=O)c1cnc(-c2cc(F)cc(F)c2)n(C2CCCCC2)c1=O [Compound 181]	100	100	100	60	80	85	98	100	100	100	100	100	95	100	100	10	60	65	70	95	Plant response rating, Surinam Grass [7, 16]: 100; Plant response rating, Foxtail, Green [8, 14]: 70; Plant response rating, Foxtail, Green [8, 15]: 95; Plant response rating, Foxtail, Green [8, 16]: 98; Plant response rating, Cupgrass, Woolly [9, 14]: 80; Plant response rating, Cupgrass, Woolly [9, 15]: 100; Plant response rating, Cupgrass, Woolly [9, 16]: 100; Plant response rating, Crabgrass, Large [10, 14]: 98; Plant response rating, Crabgrass, Large [10, 15]: 100; Plant response rating, Crabgrass, Large [10, 16]: 100; Plant response rating, Wheat [11, 14]: 40; Plant response rating, Wheat [11, 15]: 50; Plant response rating, Wheat [11, 16]: 70; Plant response rating, Lambsquarters [12, 14]: 100; Plant response rating, Lambsquarters [12, 15]: 100; Plant response rating, Lambsquarters [12, 16]: 100; Bromegrass, Downy plant response rating (0 to 100 scale) ([13]; 13 to 15 days): 50; Plant response rating, Bromegrass, Downy [13, 14]: 40; Plant response rating, Bromegrass, Downy [13, 15]: 60; Plant response rating, Bromegrass, Downy [13, 16]: 85
